Reference: PMC7377239, “Cardiovascular Effects of Polychlorinated Biphenyls and Their Major Metabolites” (Environmental Health Perspectives, 2020)
Like-named read-outs stand apart in the source and are kept apart here.

Key:
HUVECs = experiment: High-content imaging cytotoxicity in HUVECs, 24 h; format: cell-based, human; conditions: Homo sapiens, HUVEC, 24 h, HUVECs; for viability at 0.01 µM / activity at 0.01 µM / viability at 0.1 µM / activity at 0.1 µM / viability at 1 µM / activity at 1 µM / viability at 10 µM / activity at 10 µM / viability at 100 µM / activity at 100 µM: 0.00 µM = 100.00; for viability at 0.1 µM / activity at 0.1 µM: 0.10 µM; for minimal effective concentration: top concentration 100.00 µM
In short: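 Point-of-departure values come from four-parameter logistic fits of vehicle-normalized (0.5% DMSO) imaging readouts, cutoff one SD of vehicle means, 100μM where no concentration–response. Cells: HUVEC monolayers, passages 1–5, treated 24 h at 37°C, 5% CO2, then Hoechst 33342/MitoTracker Orange/calcein AM stained, imaged at 10×.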

[1] = system: iCell cardiomyocytes (human iPSC-derived cardiomyocytes); experiment: High-content imaging of cytotoxicity and mitochondrial integrity in iPSC-CMs; format: cell-based; conditions: Homo sapiens; for viability at 0.01 µM / activity at 0.01 µM / viability at 0.1 µM / activity at 0.1 µM / viability at 1 µM / activity at 1 µM / viability at 10 µM / activity at 10 µM / viability at 100 µM / activity at 100 µM: Cardiomyocyte, 0.00 µM = 100.00; for viability at 0.1 µM / activity at 0.1 µM: 0.10 µM; for minimal effective concentration: iPSC-CM
In short: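 Cardiomyocytes grown on gelatinized 384-well plates received fresh medium on the experiment day and were then exposed to chemicals at 0.01–100μM. Nuclei and mitochondria were labeled with Hoechst 33342 and MitoTracker™ Orange, then fixed, and imaged on an ImageXpress® Micro Confocal system. Four-parameter logistic concentration–response fits in R, with a one-standard-deviation vehicle cutoff, gave point-of-departure values.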

[2] = 24 hr, read-out: huvec.cyto.24hr
[3] = 24 hr, read-out: huvec.mito.24hr
[4] = 24 hr, read-out: huvec.mitoint.24hr
[5] = 24 hr, read-out: huvec.nma.24hr
[6] = 24 hrs, read-out: huvec.tc.24hrs

Question: What does the source list for Oc1cc(Cl)cc(-c2cccc(Cl)c2)c1 [5-OH PCB 11]?
Answer: viability at 0.01 µM (HUVECs; [2]): 94.6%; activity at 0.01 µM (HUVECs; [3]): 93.1%; activity at 0.01 µM (HUVECs; [4]): 89.8%; activity at 0.01 µM (HUVECs; [5]): 98.5%; viability at 0.1 µM (HUVECs; [2]): 87.5%; activity at 0.1 µM (HUVECs; [3]): 86.8%; activity at 0.1 µM (HUVECs; [4]): 107%; activity at 0.1 µM (HUVECs; [5]): 111%; viability at 1 µM (HUVECs; [2]): 93.9%; activity at 1 µM (HUVECs; [3]): 93.3%; activity at 1 µM (HUVECs; [4]): 101%; activity at 1 µM (HUVECs; [5]): 99.7%; viability at 10 µM (HUVECs; [2]): 35.9%; activity at 10 µM (HUVECs; [3]): 29.1%; activity at 10 µM (HUVECs; [4]): 17.5%; activity at 10 µM (HUVECs; [5]): 69.5%; viability at 100 µM (HUVECs; [2]): 24.1%; activity at 100 µM (HUVECs; [3]): 13.2%; activity at 100 µM (HUVECs; [4]): 12%; activity at 100 µM (HUVECs; [5]): 77.5%; minimal effective concentration (HUVECs; 24 hr, read-out: huvec.cyto.24hr POD): 0.95 µM; minimal effective concentration (HUVECs; 24 hr, read-out: huvec.mito.24hr POD): 0.84 µM; minimal effective concentration (HUVECs; 24 hr, read-out: huvec.mitoint.24hr POD): 3.3 µM; minimal effective concentration (HUVECs; 24 hr, read-out: huvec.nma.24hr POD): 1.22 µM; viability at 0.01 µM (HUVECs; [6]): 94.6%; viability at 0.1 µM (HUVECs; [6]): 87.5%; viability at 1 µM (HUVECs; [6]): 93.9%; viability at 10 µM (HUVECs; [6]): 36%; viability at 100 µM (HUVECs; [6]): 26.8%; minimal effective concentration (HUVECs; 24 hrs, read-out: huvec.tc.24hrs POD): 0.95 µM; viability at 0.01 µM ([1]; 1.5 h, read-out: cm.cam.90min): 91%; activity at 0.01 µM ([1]; 1.5 h, read-out: cm.mii.90min): 117%; activity at 0.01 µM ([1]; 1.5 h, read-out: cm.mito.90min): 90.7%; viability at 0.01 µM ([1]; 1.5 h, read-out: cm.tc.90min): 91.1%; viability at 0.1 µM ([1]; 1.5 h, read-out: cm.cam.90min): 96.6%; activity at 0.1 µM ([1]; 1.5 h, read-out: cm.mii.90min): 96.6%; activity at 0.1 µM ([1]; 1.5 h, read-out: cm.mito.90min): 96.4%; viability at 0.1 µM ([1]; 1.5 h, read-out: cm.tc.90min): 96.5%; viability at 1 µM ([1]; 1.5 h, read-out: cm.cam.90min): 99%; activity at 1 µM ([1]; 1.5 h, read-out: cm.mii.90min): 90.6%; activity at 1 µM ([1]; 1.5 h, read-out: cm.mito.90min): 99%; viability at 1 µM ([1]; 1.5 h, read-out: cm.tc.90min): 99%; viability at 10 µM ([1]; 1.5 h, read-out: cm.cam.90min): 98.4%; activity at 10 µM ([1]; 1.5 h, read-out: cm.mii.90min): 108%; activity at 10 µM ([1]; 1.5 h, read-out: cm.mito.90min): 98%; viability at 10 µM ([1]; 1.5 h, read-out: cm.tc.90min): 98%; viability at 100 µM ([1]; 1.5 h, read-out: cm.cam.90min): 0%; activity at 100 µM ([1]; 1.5 h, read-out: cm.mii.90min): 69.7%; activity at 100 µM ([1]; 1.5 h, read-out: cm.mito.90min): 0.0231%; viability at 100 µM ([1]; 1.5 h, read-out: cm.tc.90min): 0.0231%; viability at 0.01 µM ([1]; 24 h, read-out: cm.cam.24hrs): 99%; activity at 0.01 µM ([1]; 24 h, read-out: cm.mii.24hrs): 95.3%; activity at 0.01 µM ([1]; 24 h, read-out: cm.mito.24hrs): 97%; viability at 0.01 µM ([1]; 24 h, read-out: cm.tc.24hrs): 99.8%; viability at 0.1 µM ([1]; 24 h, read-out: cm.cam.24hrs): 101%; activity at 0.1 µM ([1]; 24 h, read-out: cm.mii.24hrs): 93.9%; activity at 0.1 µM ([1]; 24 h, read-out: cm.mito.24hrs): 100%; viability at 0.1 µM ([1]; 24 h, read-out: cm.tc.24hrs): 101%; viability at 1 µM ([1]; 24 h, read-out: cm.cam.24hrs): 99.8%; activity at 1 µM ([1]; 24 h, read-out: cm.mii.24hrs): 100%; activity at 1 µM ([1]; 24 h, read-out: cm.mito.24hrs): 97.8%; viability at 1 µM ([1]; 24 h, read-out: cm.tc.24hrs): 99.8%; viability at 10 µM ([1]; 24 h, read-out: cm.cam.24hrs): 98.2%; activity at 10 µM ([1]; 24 h, read-out: cm.mii.24hrs): 81.6%; activity at 10 µM ([1]; 24 h, read-out: cm.mito.24hrs): 98.7%; viability at 10 µM ([1]; 24 h, read-out: cm.tc.24hrs): 97.8%; viability at 100 µM ([1]; 24 h, read-out: cm.cam.24hrs): 0.0236%; activity at 100 µM ([1]; 24 h, read-out: cm.mii.24hrs): 0%; activity at 100 µM ([1]; 24 h, read-out: cm.mito.24hrs): 0%; viability at 100 µM ([1]; 24 h, read-out: cm.tc.24hrs): 0.0229%; minimal effective concentration ([1]; 1.5 h, read-out: cm.cam.90min POD): 16.2 µM; minimal effective concentration ([1]; 1.5 h, read-out: cm.mii.90min POD): 34.1 µM; minimal effective concentration ([1]; 1.5 h, read-out: cm.mito.90min POD): 13.8 µM; minimal effective concentration ([1]; 1.5 h, read-out: cm.tc.90min POD): 14 µM; minimal effective concentration ([1]; 24 h, read-out: cm.cam.24hrs POD): 13.8 µM; minimal effective concentration ([1]; 24 h, read-out: cm.mii.24hrs POD): 8.43 µM; minimal effective concentration ([1]; 24 h, read-out: cm.mito.24hrs POD): 14.6 µM; minimal effective concentration ([1]; 24 h, read-out: cm.tc.24hrs POD): 10.7 µM
